Source: patent US20050137239A1, “Thiazole derivatives” (priority 2003, published 2005)

Assays:
[1] = tested on: AGE formation; experiment: AGE formation inhibition: protein and sugar incubated at 37° C., gel formation; conditions: control tube forms a gel
Method: This example describes the efficacy of a compound of the invention for inhibiting AGE formation.
A control tube, containing protein and sugar, forms a gel with little or no remaining liquid when incubated at 37° C. Such a gel is indicative of extensive crosslinking associated with glycation.

[2] = tested on: cross-links representative of AGEs; experiment: AGE crosslink breaking, sandwich enzyme-linked immunoabsorbent assay; conditions: pre-formed protein-sugar cross-links in multi-well plates; buffer control
Method: This example describes the efficacy of a compound of the invention for breaking crosslinks associated with AGEs using a sandwich enzyme-linked immunoabsorbent assay.
A mixture of protein and sugar was incubated to form cross-links representative of AGEs and was placed in multi-well plates. The plates were then treated with either 2-amino-4,5-dimethylthiazole HCl or buffer. After treatment, the plates were rinsed to remove any free protein liberated by cross-link breakage. An antibody reactive to the protein was then added to the plates to provide quantitative levels of protein within the plate.

[3] = target: T1, glucose oxidase (Aspergillus niger, UniProt P13006); experiment: glucose oxidase inhibition, commercially available glucose oxidase kit; assay type: biochemical
T1 construct: purchased
T1 sequence (P13006 17-605, species assumed): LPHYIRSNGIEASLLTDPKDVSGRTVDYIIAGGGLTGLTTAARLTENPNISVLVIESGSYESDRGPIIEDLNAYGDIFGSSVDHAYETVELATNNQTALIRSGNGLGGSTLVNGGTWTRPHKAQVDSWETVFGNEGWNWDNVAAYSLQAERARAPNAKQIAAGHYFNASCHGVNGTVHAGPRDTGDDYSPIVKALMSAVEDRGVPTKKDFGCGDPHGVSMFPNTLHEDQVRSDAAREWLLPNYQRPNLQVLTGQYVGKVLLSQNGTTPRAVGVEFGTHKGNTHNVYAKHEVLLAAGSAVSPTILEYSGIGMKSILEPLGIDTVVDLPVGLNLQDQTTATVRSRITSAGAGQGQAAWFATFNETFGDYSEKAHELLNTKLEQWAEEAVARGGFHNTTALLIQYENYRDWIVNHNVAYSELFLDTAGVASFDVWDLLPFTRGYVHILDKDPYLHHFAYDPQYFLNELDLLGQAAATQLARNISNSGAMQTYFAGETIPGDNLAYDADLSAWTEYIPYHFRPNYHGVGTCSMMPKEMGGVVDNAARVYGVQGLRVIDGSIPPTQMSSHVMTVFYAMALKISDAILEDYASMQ
Source text: This example describes the effectiveness of a compound of the invention for inhibiting the enzyme glucose oxidase.
To test the efficacy of 2-amino-4,5-dimethylthiazole HCl for the inhibition of glucose oxidase, a commercially available glucose oxidase kit was used.

## Cc1nc(N)sc1C.Cl [2-amino-4,5-dimethylthiazole HCl, 2-amino-4,5-dimethylthiazole hydrochloride]
[1]
  state of protein and sugar mixture (gel indicates crosslinking associated with glycation): remained liquid
[2]
  antibody bound in the plate as compared to the control plate: less antibody bound
[3]
  reduction of production of H2O2 as compared to a control sample: greater than 60%
